Experiments:
[1] = test system: DNA oligomer containing the G-quadruplex forming region of the c-Myc promoter; test: FRET assay with c-Myc G-quadruplex oligomer (ED35); type: binding; conditions: concentration of ligand that decreases relative fluorescence of DNA FRET probe (1 μM) by 35%
Method: All synthesized ligands are examined with a DNA oligomer containing the G-quadruplex forming region of the c-Myc promoter (d[[…]]). The oligomer is tagged with a 5′-FAM fluorophore and a 3′-Black Hole Quencher molecule. 1 μM oligomer is linearized by heating at 95° C. for 5 minutes in a 50 mM Tris-Acetate buffer (pH 7.1) and slowly cooled back to room temperature, allowing formation of a G-quadruplex. Ligand is added to the oligomer probe at various concentrations spanning a 2-3 log range (high dose of 10 μM), allowed to incubate for 15 minutes in the dark and fluorescence is read on the BioTek Synergy HT spectrophotometer (Biotek, Winooski, VT). Drug autofluorescence is subtracted, data is normalized to oligomer only, and ED35s are calculated from data fit by a sigmoidal top-to-bottom nonlinear regression. ED35s<10 μM are further analyzed by circular dichroism (CD).
Experimental values for compounds tested according to one or more of the preceding examples are reported in the following table, including, ED35 is the concentration of ligand that decreases the relative fluorescence of a DNA FRET probe (1 μM) by 35% (identified as the threshold to minimize false negatives). ED35 values are reported in ranges: A: >10 μM; B: ≤10 μM.

[2] = test system: c-Myc oligomer (parallel G-quadruplex); test: Circular dichroism melting (ΔTm) with 1 equivalent of ligand; type: binding; conditions: increase in melting temperature with 1 equivalent of ligand (DNA:Ligand=1:1)
Method: Non-labeled oligomers were prepared as described for FRET (Example VII). Ligands interacting with the c-Myc FRET oligomer are further examined for DNA secondary structure stabilization by CD (Sun et al., 2005). Briefly, the CD absorption spectra at 262 nm (parallel G-quadruplex) with increasing temperatures (4-95° C.) is examined in the absence and presence of 1 equivalence of ligand. TM is calculated by GraphPad Prizm using a top-to-bottom nonlinear fit, and ΔTM are calculated for each ligands.

AR mRNA = AR mRNA expression by RT-qPCR; type: cell-based; conditions: 10 μM; for AR mRNA: LNCaP and C4-2 cells, 12 and 24 hours
Method: (§1) This example provides specific compounds of the present invention suppress AR protein expression in androgen-dependent (LNCaP) and CRPC tumor cells ([…]) after a 24 h treatment at 10 μM (FIG. 1A) (Cell lysates from LNCaP and C4-2 cells treated with GSA compounds at a concentration of 10 μM for 24 hours were analyzed for expression of AR, NCL, and GAPDH by immunoblotting). GSA0932 suppress AR expression in 22RV1 and VCaP tumor cells, after 24 h of treatment reaching its maximal inhibitory activity at a concentration of 3 and 5 μM respectively (FIG. 1B) (Cell lysates from indicated prostate cancer cell lines treated with increasing concentrations GSA0932 for 24 hours were analyzed for AR, NCL, and GAPDH by immunoblotting). […] Values are means±s.e.m; p<0.05 (*); n=3).
(§2) To measure the dependency of GSA0932-mediated AR suppression on the AR G4-element, we generated a stable LNCaP cell lines expressing a dual reporter in which Gaussia luciferase is driven by either a wild type or a mutant AR promoter lacking the G4 element, and secreted alkaline phosphatase (SEAP) is driven by a constitutive promoter. […] However, GSA0932 had no effect on the G4-deleted AR reporter (FIG. 1E). […] Knocking down NCL expression alleviated the GSA0932 inhibitory activity against AR mRNA expression compared with control cells (FIG. 1G) (LNCaP cells were transfected with scrambled (Scr) or NCL siRNAs and […] post-transfection, cells were treated with DMSO, 10 μM GSA0932, or […] GSA1502 for 12 hours. Extracted RNA was analyzed for AR expression by RT-qPCR).

AR = AR protein expression by immunoblotting in prostate cancer cells; type: cell-based; conditions: for concentration of maximal inhibitory activity on AR expression: 24 h of treatment
Method: as §1

Telomeric G-quadruplex = test: Competition dialysis, ligand bound to G-quadruplex; type: binding; conditions: 2 μM of compound
Method: (§3) Following the competition dialysis assay method of the Chaires group (Ragazzon et al., Methods 2007, 42, 173-182, which is hereby incorporated by reference in its entirety) using 2 μM of the referenced compound, the concentration of ligand bound to G-quadruplex structure for a variety of target genes were determined.

PDGF-Rβ G-quadruplex = test: Competition dialysis, ligand bound to G-quadruplex; type: binding; conditions: 2 μM of compound
Method: as §3

PDGFA G-quadruplex = test: Competition dialysis, ligand bound to G-quadruplex; type: binding; conditions: 2 μM of compound
Method: as §3

hTERT G-quadruplex = test: Competition dialysis, ligand bound to G-quadruplex; type: binding; conditions: 2 μM of compound
Method: as §3

HIF-1α G-quadruplex = test: Competition dialysis, ligand bound to G-quadruplex; type: binding; conditions: 2 μM of compound
Method: as §3

Bcl-2 G-quadruplex = test: Competition dialysis, ligand bound to G-quadruplex; type: binding; conditions: 2 μM of compound
Method: as §3

VEGF G-quadruplex = test: Competition dialysis, ligand bound to G-quadruplex; type: binding; conditions: 2 μM of compound
Method: as §3

MYC G-quadruplex = test: Competition dialysis, ligand bound to G-quadruplex; type: binding; conditions: 2 μM of compound
Method: as §3

[3] = test system: AR-positive tumor cells versus non-AR expressing cells; test: Cytotoxic activity across prostate cell lines by MTT; type: cell-based; conditions: 48 h
From the text: (§4) Table V provides the IC50 values for GSA0932.

[4] = test system: wild type AR promoter (AR G4) reporter; test: Dual reporter, Gaussia luciferase driven by wild type AR promoter, in LNCaP; type: cell-based; conditions: LNCaP stable cells, 10 μM, 12 hours
From the text: as §2

[5] = test system: NCL bound to the G4-element of the AR promoter; test: ChIP of NCL on AR G4; type: cell-based; conditions: LNCaP and C4-2 cells, 10 μM
ARv7 splice variant = ARv7 splice variant expression by immunoblotting in 22RV1; type: cell-based; conditions: 22RV1 cells, 24 h
Method: as §1

LNCaP cells = test: Cell viability by MTT, 48 h; type: cell-based; conditions: Homo sapiens
From the text: as §4

VCaP cells = test: Cell viability by MTT, 48 h; type: cell-based; conditions: Homo sapiens
From the text: as §4

22Rv1 cells = test: Cell viability by MTT, 48 h; type: cell-based; conditions: Homo sapiens, 22Rv1, 48 h
From the text: as §4

C4-2 cells = test: Cell viability by MTT, 48 h; type: cell-based; conditions: C4-2, 48 h
From the text: as §4

[6] = test system: RWPE non-malignant prostate cells; test: Cell viability by MTT, 48 h; type: cell-based
From the text: as §4

PC3 cells = test: Cell viability by MTT, 48 h; type: cell-based; conditions: Homo sapiens, PC-3, PC3, 48 h
From the text: as §4

G4-deleted AR reporter = test: Dual reporter, Gaussia luciferase driven by mutant AR promoter lacking the G4 element, in LNCaP; type: cell-based; conditions: LNCaP stable cells, 10 μM, 12 hours
From the text: as §2

KLK3, also known as PSA = test: mRNA expression of AR target gene by RT-qPCR; type: cell-based; conditions: 12 hours; 10 μM (LNCaP, C4-2), 5 μM (VCaP), 3 μM (22RV1)

## c1ccc2c3c4c(nc2c1)c1ccccc1n4CCCN3CCCN1CCCCC1 [Compound 15]
[1]
  ED35: B (B: ≤10 μM)

## O=C(NCCN1CCCn2c3ccccc3c3nc4ccccc4c1c32)C1C[C@@H](O)CN1 (stereo partly drawn) [Compound 9]
[2]
  ΔTm: B (B: >10° C.)
[1]
  ED35: B (B: ≤10 μM)

## CN(C)CCN1CCCn2c3ccccc3c3nc4ccccc4c1c32 [GSA1502]
AR mRNA
  AR mRNA: does not affect
AR; LNCaP and C4-2 cells, 24 h, 10 μM
  AR protein expression: does not affect

## c1ccc2c3c4c(nc2c1)c1ccccc1n4CCCN3CCN1CCOCC1 [Compound 1]
[2]
  ΔTm: A (A: 0-10° C.)
[1]
  ED35: A (A: >10 μM)

## O=C(NCCCN1CCCn2c3ccccc3c3nc4ccccc4c1c32)C1C[C@@H](O)CN1 (stereo partly drawn) [Compound 11]
[2]
  ΔTm: B (B: >10° C.)
[1]
  ED35: B (B: ≤10 μM)

## c1ccc2c3c4c(nc2c1)c1ccccc1n4CCCN3CCCN1CCOCC1 [Compound 3]
[2]
  ΔTm: A (A: 0-10° C.)
Telomeric G-quadruplex
  concentration of ligand bound to G-quadruplex structure: 1.0 µM
PDGF-Rβ G-quadruplex
  concentration of ligand bound to G-quadruplex structure: 0.0 µM
PDGFA G-quadruplex
  concentration of ligand bound to G-quadruplex structure: 0.5 µM
hTERT G-quadruplex
  concentration of ligand bound to G-quadruplex structure: 10.5 µM
HIF-1α G-quadruplex
  concentration of ligand bound to G-quadruplex structure: 4.0 µM
Bcl-2 G-quadruplex
  concentration of ligand bound to G-quadruplex structure: 3.0 µM
VEGF G-quadruplex
  concentration of ligand bound to G-quadruplex structure: 3.0 µM
MYC G-quadruplex
  concentration of ligand bound to G-quadruplex structure: 1.0 µM
[1]
  ED35: B (B: ≤10 μM)

## Cl.c1ccc2c3c4c(nc2c1)c1ccccc1n4CCCN3CCCN1CCCCCC1 [Compound 6]
[2]
  ΔTm: A (A: 0-10° C.)
[1]
  ED35: A (A: >10 μM)

## CN1CCN(C(=O)NCCCN2CCCn3c4ccccc4c4nc5ccccc5c2c43)CC1 [Compound 10]
[2]
  ΔTm: A (A: 0-10° C.)
Telomeric G-quadruplex
  concentration of ligand bound to G-quadruplex structure: 2.9 µM
PDGF-Rβ G-quadruplex
  concentration of ligand bound to G-quadruplex structure: 8.3 µM
PDGFA G-quadruplex
  concentration of ligand bound to G-quadruplex structure: 1.8 µM
hTERT G-quadruplex
  concentration of ligand bound to G-quadruplex structure: 9.5 µM
HIF-1α G-quadruplex
  concentration of ligand bound to G-quadruplex structure: 3.3 µM
Bcl-2 G-quadruplex
  concentration of ligand bound to G-quadruplex structure: 8.3 µM
VEGF G-quadruplex
  concentration of ligand bound to G-quadruplex structure: 2.5 µM
MYC G-quadruplex
  concentration of ligand bound to G-quadruplex structure: 6.8 µM
[1]
  ED35: B (B: ≤10 μM)

## OCCCN1CCCn2c3ccccc3c3nc4ccccc4c1c32 [Compound 4]
[2]
  ΔTm: A (A: 0-10° C.)
[1]
  ED35: B (B: ≤10 μM)

## OC1CCN(CCN2CCCn3c4ccccc4c4nc5ccccc5c2c43)CC1 [GSA0932]
AR mRNA
  AR mRNA: significantly decreased
AR mRNA; LNCaP cells, NCL siRNA versus scrambled, 12 hours
  inhibitory activity against AR mRNA expression after NCL knockdown: alleviated
[3]
  cytotoxic activity, AR-positive versus non-AR expressing cells: stronger cytotoxic activity against AR-positive tumor cells than non-AR expressing cells
[4]
  luciferase activity of wild type reporter: significantly decreases luciferase activity
[5]
  amount of NCL bound to the G4-element of the AR promoter: increases the amount of NCL bound
ARv7 splice variant
  expression of ARv7 splice variant: inhibits the expression
LNCaP cells
  IC50: 1.4 ± 0.26 µM
VCaP cells
  IC50: 2.8 ± 0.03 µM
22Rv1 cells
  IC50: 0.9 ± 0.11 µM
C4-2 cells
  IC50: 2 ± 0.04 µM
[6]
  IC50: 5.4 ± 0.05 µM
PC3 cells
  IC50: 4.3 ± 0.16 µM
AR; 22RV1 cells
  concentration of maximal inhibitory activity on AR expression: 3 µM
AR; VCaP cells
  concentration of maximal inhibitory activity on AR expression: 5 µM
G4-deleted AR reporter
  effect on G4-deleted AR reporter: had no effect
KLK3, also known as PSA
  mRNA expression of AR target gene KLK3 (PSA): suppressed mRNA expression

## c1ccc2c3c4c(nc2c1)c1ccccc1n4CCCN3CCCNc1ncnc2nc[nH]c12 [Compound 12]
[2]
  ΔTm: A (A: 0-10° C.)
[1]
  ED35: B (B: ≤10 μM)

## OC1CCN(CCCN2CCCn3c4ccccc4c4nc5ccccc5c2c43)CC1 [Compound 7]
[2]
  ΔTm: A (A: 0-10° C.)
[1]
  ED35: B (B: ≤10 μM)

## CN1CCN(C(=O)NCCN2CCCn3c4ccccc4c4nc5ccccc5c2c43)CC1 [Compound 8]
[2]
  ΔTm: B (B: >10° C.)
[1]
  ED35: B (B: ≤10 μM)

## CN1CCN(C(=O)N2C[C@H](O)CC2C(=O)NCCCN2CCCn3c4ccccc4c4nc5ccccc5c2c43)CC1 (stereo partly drawn) [Compound 13]
[2]
  ΔTm: A (A: 0-10° C.)
[1]
  ED35: B (B: ≤10 μM)

## OC1CCN(CCN2CCCn3c4ccccc4c4nc5ccccc5c2c43)CC1 [Compound 2]
[2]
  ΔTm: A (A: 0-10° C.)
[1]
  ED35: A (A: >10 μM)

## NCCCN1CCCn2c3ccccc3c3nc4ccccc4c1c32 [Compound 14]
[2]
  ΔTm: A (A: 0-10° C.)
[1]
  ED35: B (B: ≤10 μM)

## CN1CCN(CCCN2CCCn3c4ccccc4c4nc5ccccc5c2c43)CC1 [Compound 5]
[2]
  ΔTm: A (A: 0-10° C.)
[1]
  ED35: A (A: >10 μM)

From US12509468B2, “Quindoline compounds and uses thereof” (Arizona Board of Regents on Behalf of the University of …, priority 2019, dated 2025)
